In PubChem BioAssay (NCI):
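Exposure lasted 48 hours, with cells grown in 96-well plates and compounds tested at five concentrations. GI50 marks 50% less growth. At the TGI there is no net growth.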

Legend:
Assay in all cases: DTP human tumour cell line panel, 48 h
OVCAR-4 ovarian = system: OVCAR-4 ovarian
OVCAR-5 ovarian = system: OVCAR-5 ovarian
IGROV1 ovarian = system: IGROV1 ovarian
A498 renal = system: A498 renal
ACHN renal = system: ACHN renal
NCI-H460 lung = system: NCI-H460 lung
NCI-H522 lung = system: NCI-H522 lung
786-0 renal = system: 786-0 renal
MOLT-4 leukemia = system: MOLT-4 leukemia
SNB-78 CNS = system: SNB-78 CNS

SMILES | GI50 (OVCAR-4 ovarian) [µM] | TGI (OVCAR-4 ovarian) [µM] | GI50 (OVCAR-5 ovarian) [µM] | TGI (OVCAR-5 ovarian) [µM] | GI50 (IGROV1 ovarian) [µM] | TGI (IGROV1 ovarian) [µM] | GI50 (A498 renal) [µM] | TGI (A498 renal) [µM] | GI50 (ACHN renal) [µM] | TGI (ACHN renal) [µM] | GI50 (NCI-H460 lung) [µM] | TGI (NCI-H460 lung) [µM] | GI50 (NCI-H522 lung) [µM] | TGI (NCI-H522 lung) [µM] | GI50 (786-0 renal) [µM] | TGI (786-0 renal) [µM] | GI50 (MOLT-4 leukemia) [µM] | TGI (MOLT-4 leukemia) [µM] | TGI (SNB-78 CNS) [µM]
COc1ccc(C2CC(c3ccc4ccccc4c3)=NN2c2nc(O)c(C3=c4cc(OC)ccc4=NC3=O)s2)cc1 (configuration not stated) | 0.033 | 0.128 | 0.115 | 1.35 | 0.0641 | 0.388 | 0.124 | 0.3 | 0.0678 | 0.419 | 0.0226 | 0.0473 | 0.0519 | 0.154 | 0.028 | 0.0869 | 0.11 | 0.91 | –
NS(=O)(=O)c1ccc(N=C2C(=O)Nc3ccccc32)cc1 | – | > 100 | – | > 100 | – | > 100 | – | > 100 | – | > 100 | – | > 100 | – | > 100 | – | > 100 | – | > 100 | –
Fc1ccc(C2SCc3nc4ccccc4n32)cc1F (configuration not stated) | – | 98.9 | – | – | – | > 100 | – | > 100 | – | > 100 | – | > 100 | – | 61.7 | – | > 100 | – | 56 | > 100
O=c1[nH]c2ccccc2n2cc3ccccc3c12 | 7.2 | 89.7 | 10.4 | 35.5 | 10.3 | 25.4 | 11.1 | 26.7 | 1.81 | 7.18 | 7.8 | > 100 | 13.7 | 32.3 | 4.23 | 18.1 | 3.62 | 8.77 | –
CC1=NC=C(O)c2ccccc2O1 | – | > 100 | – | – | – | > 100 | – | > 100 | – | > 100 | – | > 100 | – | – | – | > 100 | – | > 100 | > 100
